Consider 17 molecules from PubChem BioAssay (NCI).

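Compound exposure: 48 hours, 5 concentrations, 96-well plates. TGI is the concentration that stops growth completely.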 Where a SMILES comes first, the peptide text is derived from it. The star is where a group is joined. OBn = c1ccc(CO*)cc1

Common to all, as to assay: DTP human tumour cell line panel, 48 h
Experiment [1] relates to EKVX NSCLC.
Experiment [2] relates to HCT-116 colon.
Experiment [3] concerns HOP-92 NSCLC.
Experiment [4] deals with HS 578T breast.
Experiment [5] deals with HT29 colon.
In experiment [6] the test system is IGROV1 ovarian.
For experiment [7], the system named is KM12 colon.
For experiment [8], the system named is MCF7 breast.
The test system of experiment [9] is MDA-MB-435.
Experiment [10] concerns NCI-H460 lung.
Experiment [11] concerns OVCAR-3 ovarian.
In experiment [12] the test system is OVCAR-5 ovarian.
The test system of experiment [13] is SF-539 CNS.
Experiment [14] concerns SK-MEL-28 melanoma.
Experiment [15] concerns TK-10 renal.
The test system of experiment [16] is UACC-62 melanoma.
In experiment [17] the test system is HCC-2998 colon.
Experiment [18] concerns SNB-19 CNS.

For the molecule `O=C1CCSc2c(cnc3ccccc23)N1`, the TGI in [1], in experiment [2], in experiment [3], in experiment [4], in [5] and in experiment [6] was more than 100 µM in each case. In addition, the TGI in [7], in experiment [8], in experiment [9], in experiment [10], in experiment [11] and in [12] was more than 100 µM in each case. Moreover, the TGI in experiment [13], in experiment [14], in experiment [15] and in [16] was more than 100 µM throughout.

For `COc1ccc(N2C(=O)/C(=C\c3cc(OC)c(OC)c(OC)c3)S(=O)(=O)C2c2ccccc2)cc1` (configuration not stated), the total growth inhibition concentration (TGI) in experiment [17], in experiment [2], in experiment [3], in [4], in experiment [7] and in experiment [8] was more than 100 µM each time. Also, the TGI in [9] is 72.3 µM; in experiment [10], more than 100 µM; in experiment [11], more than 100 µM; in experiment [13], more than 100 µM; in [14], more than 100 µM; in experiment [18], more than 100 µM. Moreover, the TGI in experiment [15] and in experiment [16] was more than 100 µM each time.

Regarding `CCOC(=O)Oc1cc2c(ccn2C)c2c1c1ccccc1n2C(=O)OCC`, the TGI in [1], in experiment [2], in experiment [3], in experiment [4], in [5] and in experiment [6] was more than 100 µM each time. Besides, the TGI in experiment [7], in experiment [8], in experiment [9], in experiment [10], in experiment [11] and in experiment [12] was more than 100 µM each time. For the same molecule, the total growth inhibition concentration (TGI) in [13], in experiment [14], in experiment [15] and in experiment [16] was more than 100 µM in each case.

`NC(CCC(=O)OCc1ccccc1)C(=O)NC(CCC(=O)OCc1ccccc1)C(=O)O` (configuration not stated) (H-Glu(OBn)-Glu(OBn)-OH; configuration not given here): the total growth inhibition concentration (TGI) in experiment [1], in experiment [17], in [2], in [3], in experiment [4] and in [5] was more than 100 µM throughout. The TGI in experiment [6], in [7], in experiment [8], in experiment [9], in experiment [10] and in [11] was more than 100 µM each time. The TGI in [12], in [14], in experiment [18], in [15] and in [16] was more than 100 µM each time.

With `COc1ccccc1N1C(=O)/C(=C\c2cc(OC)c(OC)c(OC)c2)S(=O)(=O)C1c1ccccc1` (configuration not stated), the TGI in experiment [17], in [2], in experiment [3], in [4], in experiment [7] and in experiment [8] was more than 100 µM throughout. Besides, the TGI is 41.3 µM in experiment [9]; more than 100 µM in experiment [10]; more than 100 µM in [11]; 68 µM in experiment [13]; more than 100 µM in [14]; more than 100 µM in [18]. Moreover, the TGI in experiment [15] and in experiment [16] was more than 100 µM throughout.

As for `CCO/C(O)=C(/C(=N)N1CCCC1)C(=O)Nc1ccc(Cl)cc1`, the TGI in [1], in experiment [17], in [2], in [4], in experiment [5] and in experiment [6] was more than 100 µM each time. The TGI in experiment [7], in experiment [8], in experiment [9], in [10], in experiment [11] and in experiment [12] was more than 100 µM in each case. Moreover, the TGI in experiment [13], in experiment [14], in [18], in [15] and in experiment [16] was more than 100 µM in each case.

As to `CCOC(=O)/C(=C\NC(C)(C)C)c1nc2ccccc2o1`, the total growth inhibition concentration (TGI) was more than 100 µM in [1]; more than 100 µM in experiment [2]; 92.1 µM in experiment [3]; 63.9 µM in experiment [4]; 80.8 µM in [5]; more than 100 µM in experiment [6]. The TGI in experiment [7], in experiment [8], in [9], in experiment [10], in experiment [11] and in [12] was more than 100 µM in each case. Moreover, the TGI in [13] was more than 100 µM; in experiment [14], more than 100 µM; in [18], more than 100 µM; in experiment [15], more than 100 µM; in experiment [16], 50.6 µM.

On to `CN1CCN(C(=S)N(C)C(=O)c2cccs2)CC1`, for which the TGI in [17], in [3], in [4], in [5], in [6] and in [7] was more than 100 µM in each case. In addition, the TGI in [8], in experiment [9], in experiment [10], in experiment [11], in experiment [12] and in experiment [18] was more than 100 µM throughout. Moreover, the TGI in experiment [15] and in experiment [16] was more than 100 µM each time.

As for `COc1ccc(-n2cnc3c(NC(C)(C)C(=O)O)ncnc32)cc1`, the TGI in [1], in experiment [17], in experiment [2], in experiment [3], in experiment [4] and in experiment [5] was more than 100 µM throughout. In addition, the TGI in [6], in experiment [7], in [8], in experiment [9], in [10] and in experiment [11] was more than 100 µM throughout. Also, the concentration for total growth inhibition (TGI) in [12], in [14], in experiment [18], in experiment [15] and in [16] was more than 100 µM throughout.

For the molecule `CC(C)=CCC[C@@H](C)C1=C(Nc2ccccc2)C(O)=C(C)C(=O)C1=O`, the TGI in experiment [1] was more than 39.4 µM; in experiment [17], more than 41.4 µM; in [2], 16.9 µM; in experiment [3] it was 9.9 µM; in experiment [4], 9.5 µM; in experiment [5] it was 15.3 µM. Also, the concentration for total growth inhibition (TGI) is 17.6 µM in [6]; 20.7 µM in experiment [7]; 22.5 µM in [8]; more than 48.3 µM in experiment [9]; more than 40 µM in [10]; 8.97 µM in [11]. Moreover, the TGI in [12] was more than 43.5 µM; in experiment [14], 30.9 µM; in experiment [18], 22.8 µM; in [15], more than 55.1 µM; in [16], 20.7 µM.

For `O=C1NC(Cc2c[nH]c3ccccc23)C(=O)N2C(c3ccccc3)c3[nH]c4ccccc4c3C[C@@H]12` (some centres not stated), the TGI in experiment [1] came out at 65.2 µM; in experiment [2], 30.6 µM; in experiment [3], 53.7 µM; in experiment [4], 40.6 µM; in experiment [5], 48.6 µM; in experiment [6], 50.1 µM. In addition, the TGI was 40 µM in experiment [7]; more than 100 µM in experiment [8]; 39.7 µM in experiment [9]; 35.7 µM in [11]; 45.2 µM in experiment [12]; more than 100 µM in [14]. Besides, the TGI in [18] is more than 100 µM; in experiment [15], 91.4 µM; in experiment [16] it was 34.7 µM.

In the case of `C/C(=C\COP(=O)(O)OP(=O)(O)O)CC/C=C(\C)CNc1ccc([N+](=O)[O-])cc1`, the TGI in [1], in experiment [2], in [3], in [4], in [5] and in [6] was more than 100 µM throughout. Moreover, the TGI in [7], in [8], in [9], in experiment [10], in experiment [11] and in experiment [12] was more than 100 µM each time. The TGI in experiment [13], in [14], in experiment [18], in [15] and in experiment [16] was more than 100 µM throughout.

With `CC1=CCC[C@]2(C)C1=CC(=O)O[C@H]2c1ccoc1`, the TGI in experiment [1], in experiment [17], in experiment [2], in [3], in experiment [4] and in [5] was more than 100 µM throughout. The TGI in experiment [6], in [7], in experiment [8], in experiment [9], in [10] and in experiment [11] was more than 100 µM each time. Further, the TGI in experiment [12], in experiment [14], in [18], in experiment [15] and in [16] was more than 100 µM throughout.

Consider `O=c1c2c3c(sc2nc2n1N=CN(c1ccc(Cl)cc1)C2)CCCC3`, for which the TGI in experiment [1] is more than 100 µM; in experiment [17], 72 µM; in experiment [2] it was more than 100 µM; in experiment [3] it was more than 100 µM; in experiment [4], 36.9 µM; in [5], more than 100 µM. The TGI in [6], in experiment [7], in [8], in experiment [9], in experiment [10] and in experiment [11] was more than 100 µM throughout. In addition, the TGI in [12], in experiment [14], in [18], in [15] and in experiment [16] was more than 100 µM throughout.

Regarding `CC(C)N(c1cc2c(cc1F)c(=O)c(C(=O)O)cn2-c1ccc(N2CCN(C)CC2)cn1)C(C)C`, the TGI in experiment [1], in experiment [2], in experiment [3], in experiment [4], in [5] and in experiment [6] was more than 100 µM in each case. Also, the total growth inhibition concentration (TGI) in [7], in experiment [8], in [9], in experiment [10], in [11] and in [12] was more than 100 µM in each case. For the same molecule, the concentration for total growth inhibition (TGI) in experiment [13], in [14], in experiment [18] and in experiment [15] was more than 100 µM in each case.

Regarding `NC(=S)N/N=C(/C(=O)Nc1nc2ccc([N+](=O)[O-])cc2s1)C1C(=O)NC(=S)NC1=O`, the TGI was more than 100 µM in [17]; more than 100 µM in experiment [2]; more than 100 µM in experiment [3]; 74.3 µM in experiment [4]; more than 100 µM in [5]; more than 100 µM in [7]. Moreover, the TGI in experiment [8], in experiment [9], in experiment [10], in [11], in [12] and in experiment [13] was more than 100 µM throughout. Moreover, the TGI in experiment [14], in [18] and in experiment [16] was more than 100 µM throughout.

For the molecule `C/C1=C\CC[C@@]2(C)O[C@@H]2[C@H]2OC(=O)C(C)C2C[C@H]1O` (some centres not stated), the TGI in experiment [1], in experiment [17], in experiment [2], in experiment [3], in experiment [4] and in experiment [5] was more than 100 µM throughout. Also, the concentration for total growth inhibition (TGI) in experiment [6], in experiment [7], in [8], in [9], in [10] and in experiment [12] was more than 100 µM throughout. The TGI in experiment [14], in experiment [18], in experiment [15] and in experiment [16] was more than 100 µM throughout.

The TGI is the concentration giving total growth inhibition.
